The source of these data is ChEMBL document CHEMBL3585341, “-Heteroarylalkylcarbamates as inhibitors of fatty acid amide hydrolase (FAAH)” (Medchemcomm, 2014).

As usually defined, the IC50 is the midpoint of a concentration-inhibition curve. As usually defined, the inhibition is the percentage by which the read-out fell short of the control.

The target of data set [1] is T1, Fatty-acid amide hydrolase 1 (Rattus norvegicus, UniProt P97612).
T1 sequence (P97612 whole entry): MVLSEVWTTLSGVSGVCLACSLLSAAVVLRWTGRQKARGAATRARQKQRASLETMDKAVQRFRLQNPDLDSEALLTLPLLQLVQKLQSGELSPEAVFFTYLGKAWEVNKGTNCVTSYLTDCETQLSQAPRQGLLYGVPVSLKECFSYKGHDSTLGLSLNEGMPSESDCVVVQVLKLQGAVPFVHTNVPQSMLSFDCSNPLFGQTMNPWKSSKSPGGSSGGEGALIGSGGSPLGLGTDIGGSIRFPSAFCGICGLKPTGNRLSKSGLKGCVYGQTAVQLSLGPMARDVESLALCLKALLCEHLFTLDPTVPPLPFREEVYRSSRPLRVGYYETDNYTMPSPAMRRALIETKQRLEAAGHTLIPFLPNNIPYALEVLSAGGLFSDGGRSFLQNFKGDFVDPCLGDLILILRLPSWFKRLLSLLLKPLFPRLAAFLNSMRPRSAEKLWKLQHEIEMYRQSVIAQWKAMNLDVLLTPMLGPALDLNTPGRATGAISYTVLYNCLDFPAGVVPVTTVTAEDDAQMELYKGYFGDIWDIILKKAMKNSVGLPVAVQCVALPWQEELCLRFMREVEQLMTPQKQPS
As to the kind of experiment: Inhibition of Sprague-Dawley rat brain microsomal FAAH using N-(2-hydroxyethyl)-4-pyren-1-ylbutanamide as substrate assessed as 4-pyren-1-ylbutanoic acid release preincubated for 10 mins with substrate followed by protein addition measured after 60 mins by reverse phase HPLC with fluorescence detection method.

For data set [2], the target named is T2, Monoglyceride lipase (Homo sapiens) (UniProt Q99685).
T2 sequence (whole entry): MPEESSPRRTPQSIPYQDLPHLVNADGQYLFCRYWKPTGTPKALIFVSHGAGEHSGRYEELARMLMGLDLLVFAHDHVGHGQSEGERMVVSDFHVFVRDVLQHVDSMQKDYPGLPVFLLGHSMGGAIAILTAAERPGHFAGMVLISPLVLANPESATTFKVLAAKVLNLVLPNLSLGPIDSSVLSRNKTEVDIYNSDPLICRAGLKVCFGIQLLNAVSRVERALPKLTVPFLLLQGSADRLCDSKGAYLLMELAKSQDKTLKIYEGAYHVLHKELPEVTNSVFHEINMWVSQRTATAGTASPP
As to the kind of experiment: Inhibition of human recombinant MAGL using […] 4-pyren-1-yl butanoate as substrate at 10 uM preincubated for 15 mins with substrate followed by protein addition measured after 45 mins by reverse phase HPLC with fluorescence detection method.

The species entered for a further data set is Sus scrofa. As to the kind of experiment: Inhibition of porcine platelet cPLA2alpha using co-vesicles consisting 1-stearoyl-2-arachidonoyl-sn-glycero-3-phosphocholine and 1,2-dioleoyl-sn-glycerol as substrate assessed as arachidonic acid release at 10 uM after 60 mins by reverse phase HPLC with UV-detection method.
Data set [3] has as its target T3, Fatty-acid amide hydrolase 1 (Rattus norvegicus) (UniProt P97612).
T3 sequence (whole entry): T1 sequence (P97612 whole entry)
As to the kind of experiment: Inhibition of Sprague-Dawley rat brain microsomal FAAH using N-(2-hydroxyethyl)-4-pyren-1-ylbutanamide as substrate assessed as 4-pyren-1-ylbutanoic acid release at 10 uM preincubated for 10 mins with substrate followed by protein addition measured after 60 mins by reverse phase HPLC with fluorescence detection method.

The nature of data set [4]: Metabolic stability in rat liver S9 fractions assessed as remaining compound after 30 mins by reverse phase HPLC with UV-detection method in presence of NADPH. The following applies: read-out: Stability. The format is ADME, subcellular, Liver S9 fraction.
The nature of data set [5]: Metabolic stability in porcine plasma assessed as remaining compound at […] after 30 mins by reverse phase HPLC with UV-detection method. The following applies: pig, read-out: Stability. It is filed as ADME, cell-free, Sus scrofa.

Activity calls are given as the source filed them. No cut-off for these calls is given here.

Regarding `Cc1c(C#N)c(-c2ccccc2)c(-c2ccccc2)n1CCCCCCNC(=O)Oc1ccccc1`, in data set [1], the IC50 was 8700 nM.

Turning to `O=C(NCCCCCCCCn1ccc2ccccc21)Oc1ccccc1`, the inhibition result (in data set [2]; in the data set filed under Sus scrofa) was “inactive” in each case. For the same compound, the IC50 in data set [1] worked out at 240 nM.

For `O=C(NCCCCCCn1cc(-c2ccccc2)c2ccccc21)Oc1ccccc1`, in data set [1], the IC50 is 4900 nM.

For the compound `Cc1cc(-c2ccccc2)c(-c2ccccc2)n1CCNC(=O)Oc1ccccc1`, the inhibition result in data set [3] is “inactive”.

Regarding `NC(=O)c1cccc(-c2cccc(OC(=O)NC3CCCCC3)c2)c1` [URB-597], the remaining at 0.5 h in data set [4] is 13%; in data set [5], 76%. For the same compound, in the data set listed under Sus scrofa, the inhibition result is “inactive”.

For the compound `O=C(NCCCCCn1ccc2ccccc21)Oc1ccccc1`, the inhibition result (in data set [2]; in the data set filed under Sus scrofa) was “inactive” throughout. In addition, the IC50 in data set [1] was found to be 94 nM.

Turning to `O=C(NCCCCCCn1c(-c2ccccc2)cc2ccccc21)Oc1ccccc1`, the IC50 in data set [1] was 520 nM.

Take `COC(=O)c1c(-c2ccccc2)c(-c2ccccc2)n(CCCCCCNC(=O)Oc2ccccc2)c1C`: in data set [1], the IC50 is over 10000 nM. Moreover, in data set [3], the inhibition came to 21%.

In the case of `Cc1cc(-c2ccccc2)c(-c2ccccc2)n1CCCCNC(=O)Oc1ccccc1`, the IC50 in data set [1] was determined as 6200 nM.

Turning to `O=C(NCCCCCCn1nnc2ccccc21)Oc1ccccc1`, the IC50 in data set [1] was found to be 810 nM.

`Cc1ccc(-c2ccccc2)n1CCCCCCNC(=O)Oc1ccccc1`: the IC50 in data set [1] was 310 nM.

In the case of `CC(=O)c1c(-c2ccccc2)c(-c2ccccc2)n(CCCCCCNC(=O)Oc2ccccc2)c1C`, the IC50 in data set [1] was over 10000 nM. In data set [3], the inhibition was determined as 33%.

Consider `O=C(NCCCCCCn1c(-c2ccccc2)c(-c2ccccc2)c2ccccc21)Oc1ccccc1`, for which, in data set [1], the IC50 was 4700 nM.

Turning to `O=C(NCCCCn1ccc2ccccc21)Oc1ccccc1`, the inhibition entry (in data set [2]; in the data set filed under Sus scrofa) was “inactive” each time. Besides, the IC50 in data set [1] was found to be 960 nM.

For `O=C(NCCCCCCn1ncc2ccccc21)Oc1ccccc1`, the IC50 in data set [1] worked out at 920 nM.

Turning to `O=C(NCCCCCCn1cnc2ccccc21)Oc1ccccc1`, in data set [1], the IC50 is 290 nM.

On to `O=C(NCCCCCCCn1ccc2ccccc21)Oc1ccccc1`, for which the inhibition entry (in data set [2]; in the data set listed under Sus scrofa) was “inactive” in each case. The IC50 in data set [1] worked out at 90 nM.

In the case of `O=C(NCCCCCn1ccc2ccccc21)Oc1cccnc1`, the figures for the remaining at 0.5 h in data set [4] and in data set [5] were 43% and 0%, respectively. Also, the inhibition entry in the data set listed under Sus scrofa is “inactive”. Moreover, in data set [1], the IC50 is 3.6 nM.

With `O=C(NCCCCCCn1ccc2ccccc21)Oc1ccccc1`, the inhibition result (in data set [2]; in the data set listed under Sus scrofa) was “inactive” each time. Moreover, the IC50 in data set [1] stood at 250 nM.

Turning to `O=C(NCCCCCCn1ccc2ccccc21)Oc1cccnc1`, the remaining at 0.5 h in data set [4] came to 47%; in data set [5], 0%. Further, the inhibition entry in the data set filed under Sus scrofa was “inactive”. Moreover, the IC50 in data set [1] turned out to be 5.2 nM.

As to `Cc1c(-c2ccccc2)cc(-c2ccccc2)n1CCCCCCNC(=O)Oc1ccccc1`, the IC50 in data set [1] came out at 460 nM.

As to `Cc1cc(-c2ccccc2)c(-c2ccccc2)n1CCCCCCNC(=O)Oc1ccccc1`, the IC50 in data set [1] came out at 2600 nM.

`Cc1nc(-c2ccccc2)c(-c2ccccc2)n1CCCCCCNC(=O)Oc1ccccc1`: the IC50 in data set [1] was determined as 350 nM.
